In patent US20100173936A1 (priority 2008, published 2010):

Legend:
Type in all cases: in vivo, human
[1] = system: urinary albumin; assay: Proteinuria, 24 hour urine collection, standard chemical protein analysis; settings: versus pretreatment, in words (FIG. 1)
Method: Upon collection of each urine sample, the urine was quickly analyzed, and protein analysis was performed via a standard chemical analysis (Quest Laboratory, Scranton, Pa.).

[2] = HOMA-IR index of insulin resistance
From the text: Without wishing to be bound by any particular theory, it was thought that insulin resistance can play an important role in hyperglycemia in type 2 diabetic subjects, and can eventually induce the development of diabetic microangiopathy (20). Indeed, to achieve glycemic control and prevent these complications, several oral hypoglycemic agents that improve insulin resistance, such as thiazolidinediones and biguanides, have been developed and are currently available clinically (21,22). Furthermore, insulin resistance is proposed to play important roles in the pathogenesis of cardiovascular diseases (23,24), the most common cause of death in diabetic subjects. Therefore, a clinical and epidemiological evaluation was undertaken with the subjects described in Example 1 in order to evaluate insulin resistance simply and accurately in the individual diabetic subjects with hypertension. Many investigators have studied simple surrogate indices of insulin resistance in comparison with the index assessed by euglycemic-hyperinsulinemic clamp (clamp-IR); for example, fasting plasma insulin (25), homeostasis model assessment (HOMA) of insulin resistance (HOMA-IR) (26), and the fasting glucose-to-insulin ratio (27). […]

[3] = Blood pressure in randomized crossover study, Type II diabetes mellitus with hypertension
Method: (§1) Subjects with hypertension requiring therapy were excluded from the study as one of the goals of the study was to measure the anti-inflammatory effects of an ACE inhibitor independently of its blood pressure lowering effects. Subjects on lipid lowering therapy (e.g., statin therapy) at the time of enrollment continued their therapy without change throughout the study. Written informed consent was obtained from all subjects. All subjects were evaluated at the time of enrollment. The subjects received nutritional counseling and were advised to record their weight and calorie counts weekly. A nutritionist was available for counseling throughout the study. Blood samples were drawn before and at the end of therapy at a similar time of day while subjects were fasting. […] After the initial 8 weeks of treatment, there was a 4 week washout period. The subjects then received in a crossover fashion the alternate pharmacological regimen. Allocation concealment was maintained until the end of the study. Pill counts were obtained at the end of the treatment period to determine compliance (13). Subjects were advised to self-administer half of the full dose during the initial 2 days of therapy, after which they were to take the full study dose at the same time each morning. The total study period was 22 weeks. […] Blood pressure was checked with at least three separate measurements that were taken approximately five minutes apart using an Omron sphygmomanometer.

[4] = Brachial artery reactivity testing (BART), flow-mediated vasodilation, diabetic hypertensive subjects
From the text: Briefly, the subjects were positioned in the supine position with the arm in a comfortable position for imaging the brachial artery. A blood pressure cuff was then placed on the forearm, after which a baseline rest image was acquired. The brachial artery was imaged above the antecubital fossa in the longitudinal plane, and a segment with clear anterior and posterior intimal interfaces between the lumen and vessel wall was selected for continuous 2D gray-scale imaging. Blood flow velocity was estimated by time-averaging the pulsed Doppler velocity signal obtained from a mid-artery sample volume. […] After cuff deflation, the longitudinal image of the artery was recorded continuously from 30 seconds before to 2 minutes after cuff deflation. […] The diameter of the brachial artery was measured from longitudinal images in which the lumen-intima interface was visualized on both the near (anterior) and far (posterior) walls. Once the image for analysis was chosen, the boundaries for diameter measurements were identified manually with electronic calipers (Medical Imaging Application Vascular Tools, Coralville, Iowa), and the average diameter was determined from at least 3 different diameter measurements determined along a segment of the vessel. Brachial artery diameter was measured at the same time in the cardiac cycle by use of electrocardiogram (ECG) gating during image acquisition. […]

[5] = system: adiponectin; assay: Serum adiponectin enzyme immunoassay (EIA)
Method: (§2) An aliquot of each sample was then drawn, and an enzyme immunoassay (EIA; Cayman Chemical, Ann Arbor, Mich.) for serum adiponectin and leptin was performed on each sample in triplicate according to well-established protocols (45). A total of 50 μl of serum were used for the analysis. The levels of total serum adiponectin and leptin were determined on a plate reader at an optical density of 420 nm. No interference by quinapril or its metabolites was found in any of the assays.

[6] = system: leptin; assay: Serum leptin enzyme immunoassay (EIA)
Method: as §2

[7] = system: LDL; assay: LDL oxidation lag time, CuSO4 assay on LDL isolated from treated subjects
From the text: Although, the mechanisms of this damage have yet to be clearly established and may involve the inactivation of nitric oxide (NO) by oxygen-derived free radicals such as superoxide (33), it is clear that this inflammatory response affects the gene expression of regulatory molecules, such as vascular cell adhesion molecule and tumor necrosis factor-alpha (34-36), which in turn promote foam cell formation. In this regard, a reduction in NO levels along with an increase in ox-LDL may function as immunomodulators of the atherosclerotic process (37) and, indeed, recent studies imply that ox-LDL stimulates an immunological response through the formation of autoantibodies, resulting in further damage to the endothelium and acceleration of the atherosclerotic process (38,39). This antibody response may represent a marker for the extent of atherosclerosis seen in individuals. […] The LDL was then oxidized to ox-LDL by an in vitro assay utilizing CuSO4 (52). The lag time indicating the susceptibility of the LDL to oxidize was measured using a spectrophotometer at […] (42). Values were performed in triplicate.

[8] = Adverse events in the diabetic hypertensive crossover study (cough, angioedema, potassium/creatinine, hypotension)
From the text: as §1, with “subjects.” for “subjects. All subjects were evaluated at the time of enrollment. The subjects received nutritional counseling and were advised to record their weight and calorie counts weekly. A nutritionist was available for counseling throughout the study. Blood samples were drawn before and at the end of therapy at a similar time of day while subjects were fasting.”

[9] = system: PAI-1; assay: Serum soluble PAI-1 ELISA in subjects with metabolic syndrome; settings: after four weeks of therapy, quinapril 20 mg/day, alpha lipoic acid 300 mg/day, from baseline
Method: […] Blood was collected at these time periods, and serum levels of soluble PAI-1 and VCAM-1 were determined using an enzyme-linked immunosorbent assay (ELISA). Further, endothelial function in each of the subjects was also determined by flow mediated dilation (FMD) of the brachial artery, utilizing the high resolution ultrasound technique described herein above.

[10] = system: glycosylated hemoglobin; assay: Glycosylated hemoglobin in the diabetic hypertensive crossover study
[11] = diabetic hypertensive subjects, quinapril 40 mg/day, alpha lipoic acid 600 mg/day, 8 weeks
[12] = serum, diabetic hypertensive subjects

CCOC(=O)[C@H](CCc1ccccc1)N[C@@H](C)C(=O)N1Cc2ccccc2C[C@H]1C(=O)O [Quinapril, quinapril]
ratio of urinary albumin to creatinine [1]: reduced significantly | urinary albumin [1]: reduced significantly | serum HOMA-IR ([2]; end of treatment, pretreatment 3.01±0.33 U/ml): 1.83 ± 0.25 | reduction in HOMA-IR from pretreatment baseline ([2]; in vivo): 40% | Diastolic BP [3, 11]: 77.9 ± 10.0 mmHg | Systolic BP ([3]; diabetic hypertensive subjects, quinapril 40 mg/day, alpha lipoic acid 600 mg/day, 8 weeks, mean ± SD): 133.4 ± 11.7 mmHg | change in systolic and diastolic blood pressure after the follow-up period ([3]; versus pretreatment, in words): significant reduction | increase in flow mediated dilation of the brachial artery as compared to baseline ([4]; at 24 weeks as printed): 59% | flow mediated dilation of the brachial artery ([4]; post-treatment, pretreatment 3.86±0.55 percent): 6.02±0.80% | serum levels of adiponectin ([5]; over pretreatment, in words): significantly increased | Adiponectin [5, 12]: 122% of % of pretreatment | Leptin [6, 12]: 51% of % of pretreatment | serum levels of leptin ([6]; versus pretreatment, in words): significantly reduced | increase of lag time of LDL oxidation from pretreatment ([7]; human, in vivo): 23% | lag time of LDL oxidation, Post-treatment ([7]; post-treatment): 71.0 ± 13.9 s | hypotension (systolic BP less than 100 mm Hg) ([8]; during the study): No subject | rise in serum potassium or creatinine of greater than 20 percent ([8]; number of subjects affected): 1 out of 40 | incidence of cough ([8]; quinapril 40 mg/day, alpha lipoic acid 600 mg/day): 14% | angioedema ([8]; throughout the study): No angioedema | reduction of serum PAI-1 levels [9]: 22% | Glycosylated Hgb [10, 11]: 7.6 ± 1.5% | change in glycosylated hemoglobin (Hgb) ([10]; from pretreatment and between the two treatment arms, in words): no significant change
